settings: not given

| SMILES | log10 Henry constant (atm·m³/mol) | log10 Koc (L/kg) | log10 vapour pressure (mmHg) | melting point | boiling point | ready biodegradability | log10 biodegradation half-life (days) | log10 Koa |
| --- | --- | --- | --- | --- | --- | --- | --- | --- |
| COC(=O)c1ccccc1S(=O)(=O)NC(=O)N(C)c1nc(C)nc(OC)n1 | -13 | 1.72 | -9.41 | 141 °C | – | – | – | – |
| COC(=O)c1ccc2ccccc2c1 | – | – | – | 77 °C | 290 °C | – | – | – |
| Clc1cc(Cl)nc(-c2ccccc2)n1 | – | – | -4.05 | 96.9 °C | – | – | – | – |
| COc1ccc(CO)cc1O | – | – | – | 136 °C | – | – | – | – |
| CCc1ncc(C)cc1C | – | – | – | – | 198 °C | – | – | – |
| CC(Oc1ccccc1)C(=O)Cl (centres undefined) | – | – | – | – | 147 °C | – | – | – |
| CC1CCCCC1NC(=O)Nc1ccccc1 (centres undefined) | – | 2.31 | -8.4 | 136 °C | – | – | – | – |
| CC(O)C#N (centres undefined) | – | – | -0.925 | -40 °C | 183 °C | – | – | – |
| O=C(O)c1ccc(C(=O)O)c2c(C(=O)O)ccc(C(=O)O)c12 | – | – | – | 320 °C | – | – | – | – |
| CC(C)COc1ccccc1 | – | – | – | – | 198 °C | – | – | – |
| CC(=O)CC(c1ccco1)c1c(O)c2ccccc2oc1=O (centres undefined) | – | – | – | 124 °C | – | – | – | – |
| NC(=O)c1cccc(N)c1 | – | – | – | 116 °C | – | – | – | – |
| O=C(O)C(c1ccc(Cl)cc1)c1ccc(Cl)cc1 | – | – | – | 168 °C | – | – | – | – |
| C=C1C[C@]23C[C@@]1(O)CC[C@H]2[C@@]12C=C[C@H](O)[C@@](C)(C(=O)O1)[C@H]2[C@@H]3C(=O)O | – | – | – | 234 °C | – | – | – | – |
| S=C=Nc1ccc(Cl)cc1 | – | – | – | 46 °C | 250 °C | – | – | – |
| O=C(C(Cl)Cl)C(Cl)Cl | – | – | – | – | 183 °C | – | – | – |
| CCOC(=O)Cc1c[nH]c2ccccc12 | – | – | – | 44.5 °C | – | – | – | – |
| Oc1ccc(Cl)cc1O | – | – | – | 90.5 °C | – | not readily biodegradable | – | – |
| CCC(CC)c1ccccc1 | – | – | – | – | 188 °C | – | – | – |
| C=C(C)C1CC1 | – | – | – | – | 70 °C | – | – | – |

| SMILES | log10 Henry constant (atm·m³/mol) | log10 Koc (L/kg) | log10 vapour pressure (mmHg) | melting point | boiling point | ready biodegradability | log10 biodegradation half-life (days) | log10 Koa |
| --- | --- | --- | --- | --- | --- | --- | --- | --- |
| CC(F)(F)Cl | -1.23 | – | 3.41 | -131 °C | -9.7 °C | – | – | – |
| CCCC1COC(Cn2cncn2)(c2ccc(Cl)cc2Cl)O1 (centres undefined) | – | 3.39 | -6.38 | – | – | – | – | – |
| O=C1Nc2ccc(Cl)cc2C(c2ccccc2Cl)=NC1O (centres undefined) | – | – | – | 167 °C | – | – | – | – |
| Cc1c(C)c2ccccc2c2ccccc12 | – | – | – | 144 °C | – | – | – | – |
| CCc1ccc(O)cc1 | -6.11 | – | -1.43 | 45 °C | 218 °C | readily biodegradable | – | – |
| CCCCCCCCCCCCCCCCCCCC | – | – | -5.34 | 36.8 °C | 343 °C | readily biodegradable | 1.4 | – |
| FC(F)=C(F)OC(F)(F)C(F)(F)C(F)(F)F | – | – | – | – | – | not readily biodegradable | – | – |
| Clc1cc(-c2c(Cl)cccc2Cl)c(Cl)c(Cl)c1Cl | -4.41 | – | – | – | – | – | – | – |
| CC(=O)Nc1c(I)c(NC(C)=O)c(I)c(C(=O)[O-])c1I.[Na+] | – | – | – | 261 °C | – | – | – | – |
| Cc1ccc(-c2ccccc2)cc1 | – | – | – | 49.5 °C | 268 °C | – | 1.58 | – |
| c1ccc2c(N=Nc3cccc4ccccc34)cccc2c1 | – | – | – | 190 °C | – | – | – | – |
| NN1C(=O)CSC1=S | – | – | – | 102 °C | – | – | – | – |
| Cn1ccc(=O)n(C)c1=O | – | – | -2.26 | 120 °C | – | – | – | – |
| O=Cc1cccc(Oc2ccccc2)c1 | – | – | – | – | – | not readily biodegradable | – | – |
| Clc1ccc(Cl)c2c(Cl)ccc(Cl)c12 | – | – | – | – | – | – | – | 8.45 |
| CC(C)(C)c1cc(Cc2cc(C(C)(C)C)c(O)c(C(C)(C)C)c2)cc(C(C)(C)C)c1O | – | – | – | – | – | not readily biodegradable | – | – |
| CCNc1ccc(C)cc1 | – | – | – | – | 217 °C | not readily biodegradable | – | – |
| CCOC(=O)CSCCC1NC(C(=O)O)CS1 (centres undefined) | – | – | – | 142 °C | – | – | – | – |
| CCCCNC(=O)n1cc(F)c(=O)[nH]c1=O | – | – | – | 136 °C | – | – | – | – |
| CC(C)(C(N)=O)n1nc2ccccc2n1 | – | – | – | 174 °C | – | – | – | – |

| SMILES | log10 Henry constant (atm·m³/mol) | log10 Koc (L/kg) | log10 vapour pressure (mmHg) | melting point | boiling point | ready biodegradability | log10 biodegradation half-life (days) | log10 Koa |
| --- | --- | --- | --- | --- | --- | --- | --- | --- |
| c1ccc([Si](c2ccccc2)(c2ccccc2)c2ccccc2)cc1 | – | – | – | 236 °C | – | – | – | – |
| CCC(Br)C(=O)Cl (centres undefined) | – | – | – | – | 151 °C | – | – | – |
| C#C[C@H](O)CC | – | – | – | – | 125 °C | – | – | – |
| CC(=O)CC(=O)CC(C)=O | – | – | – | 49 °C | – | – | – | – |
| CC[C@]1(O)CC[C@H]2[C@@H]3CCC4=CCCC[C@@H]4[C@H]3CC[C@@]21C | – | – | – | 77 °C | – | – | – | – |
| COCC(C)N(C(=O)CCl)c1c(C)csc1C (centres undefined) | -7.09 | – | -3.56 | – | – | – | – | – |
| Nc1ccccc1F | – | – | – | -34.6 °C | 175 °C | – | – | – |
| CC=Cc1ccccc1O | – | – | – | -6 °C | 220 °C | – | – | – |
| O=C(O)C(F)(F)F | -6.95 | – | 2.04 | -15.2 °C | 73 °C | – | – | – |
| CC(C)CCN | – | – | – | – | 96 °C | – | – | – |
| CCCC(C)O (centres undefined) | -4.83 | – | 0.786 | -73 °C | 119 °C | readily biodegradable | – | – |
| CCCOC(=O)NCCCN(C)C.Cl | – | – | -6.54 | 64.2 °C | – | – | – | – |
| O=C(O)C(O)c1ccccc1 (racemic) | – | – | – | 124 °C | – | – | – | – |
| O=[N+]([O-])c1cccc2cnccc12 | – | – | – | 110 °C | – | – | – | – |
| CCCCCC(C=O)=Cc1ccccc1 | – | – | – | 80 °C | – | readily biodegradable | – | – |
| Cl.NCCc1ccccc1 | – | – | – | 218 °C | – | – | – | – |
| CC1(C)CC(C)(c2ccccc2)c2ccccc21 (centres undefined) | – | – | – | 52.5 °C | 308 °C | – | – | – |
| FC(F)=C(F)F | – | – | 4.39 | -142 °C | -75.9 °C | – | – | – |

same assay, conditions: fish

| SMILES | log10 biotransformation half-life (days) | log10 BCF |
| --- | --- | --- |
| C=C(C)CCCCCCCCCCC | 0.73 | – |
| CC(C)=CC=C(C)C | 0.49 | 2.32 |
| COP(=S)(OC)Oc1cc(Cl)c(Br)cc1Cl | 0.97 | 3.59 |
| Clc1cccc(Cl)c1Cl | 0.92 | 2.82 |
| CCCC1COC(Cn2cncn2)(c2ccc(Cl)cc2Cl)O1 (centres undefined) | 0.7 | – |
| CCNc1ccc(C)cc1 | – | 0.61 |
